biological target: GluA1o-γ8 (GRIA1o-CACNG8 fusion construct) (Homo sapiens (Human), UniProt P42261+Q8WXS5); test: Calcium flux assay (FLIPR), inhibition of TARP γ8 dependent AMPA receptor activity; type: cell-based; conditions: GluA1o-γ8 (GRIA1o-CACNG8 fusion) in HEK293 cells, calcium flux after 15 μM glutamate
Summary of the method: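 Glutamate (15 μM) was added to a stable HEK293 line carrying the GluA1o–γ8 fusion, which had been preincubated with compound and calcium dye in HEPES buffer, pH 7.4. Normalized FLIPR fluorescence (no compound vs 10 μM CP465022) was fitted with four parameters; pIC50 is the midpoint's negative log.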

GluA1o-γ8 (GRIA1o-CACNG8 fusion construct), sequence (P42261 other isoform, or with tags, fused parts or gaps): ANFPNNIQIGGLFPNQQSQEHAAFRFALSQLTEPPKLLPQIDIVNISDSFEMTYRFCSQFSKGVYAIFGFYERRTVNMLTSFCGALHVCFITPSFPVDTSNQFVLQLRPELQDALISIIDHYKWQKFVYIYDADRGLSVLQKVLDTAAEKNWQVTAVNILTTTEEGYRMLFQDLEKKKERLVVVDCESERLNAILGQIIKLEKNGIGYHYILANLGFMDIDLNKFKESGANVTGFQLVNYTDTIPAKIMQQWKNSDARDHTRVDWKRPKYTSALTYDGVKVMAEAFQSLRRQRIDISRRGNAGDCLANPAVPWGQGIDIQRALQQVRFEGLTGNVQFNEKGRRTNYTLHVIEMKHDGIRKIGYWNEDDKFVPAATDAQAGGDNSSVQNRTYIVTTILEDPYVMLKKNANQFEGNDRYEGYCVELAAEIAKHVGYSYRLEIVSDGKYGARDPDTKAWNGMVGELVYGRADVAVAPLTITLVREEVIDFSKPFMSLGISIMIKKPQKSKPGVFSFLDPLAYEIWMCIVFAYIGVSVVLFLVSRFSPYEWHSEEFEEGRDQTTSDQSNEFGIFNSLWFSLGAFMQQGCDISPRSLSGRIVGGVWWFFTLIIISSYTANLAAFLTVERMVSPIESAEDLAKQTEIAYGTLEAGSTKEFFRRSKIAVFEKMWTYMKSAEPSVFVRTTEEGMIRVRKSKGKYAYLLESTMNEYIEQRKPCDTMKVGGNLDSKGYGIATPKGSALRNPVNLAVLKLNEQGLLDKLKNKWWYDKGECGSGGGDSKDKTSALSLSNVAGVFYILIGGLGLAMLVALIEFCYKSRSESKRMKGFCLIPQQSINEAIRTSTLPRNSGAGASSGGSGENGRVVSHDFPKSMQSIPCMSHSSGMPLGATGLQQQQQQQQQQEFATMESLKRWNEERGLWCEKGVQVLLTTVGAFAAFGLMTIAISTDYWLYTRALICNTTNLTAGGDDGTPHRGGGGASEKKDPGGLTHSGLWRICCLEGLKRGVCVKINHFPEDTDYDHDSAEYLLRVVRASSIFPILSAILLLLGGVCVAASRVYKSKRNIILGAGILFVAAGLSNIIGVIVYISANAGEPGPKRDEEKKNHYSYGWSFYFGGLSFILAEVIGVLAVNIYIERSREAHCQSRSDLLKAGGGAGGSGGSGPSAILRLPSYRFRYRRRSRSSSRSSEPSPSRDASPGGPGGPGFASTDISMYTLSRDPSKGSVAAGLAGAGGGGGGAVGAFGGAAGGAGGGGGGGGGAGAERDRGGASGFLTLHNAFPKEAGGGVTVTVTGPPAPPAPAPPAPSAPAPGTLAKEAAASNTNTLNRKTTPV

Compound | IC50 [nM]
CCC(F)(F)c1nc2ccc(C(F)(F)F)nc2n1-c1ccc2[nH]ncc2c1 [Example 232, 2-(1,1-Difluoropropyl)-3-(1H-indazol-5-yl)-5-(trifluoromethyl)imidazo[4,5-b]pyridine] | 15.8
CC(C)c1c(Br)c2ccc(C(F)(F)F)nc2n1-c1cnc2c(c1)CC(=O)N2 [Example 394, 5-[3-Bromo-2-isopropyl-6-(trifluoromethyl)pyrrolo[2,3-b]pyridin-1-yl]-1,3-dihydropyrrolo[2,3-b]pyridin-2-one] | 31.6
Fc1n[nH]c2ccc(-n3c(C4CC4)nc4ccc(C(F)(F)F)nc43)cc12 [Example 197, 2-Cyclopropyl-3-(3-fluoro-1H-indazol-5-yl)-5-(trifluoromethyl)imidazo[4,5-b]pyridine] | 6.31
O=C1Cc2cc(-n3c(C4CC4)nc4ccc(Cl)nc43)ccc2N1 [Example 95, 5-(5-Chloro-2-cyclopropyl-imidazo[4,5-b]pyridin-3-yl)indolin-2-one] | 39.8
COC(C)(C)c1nc2ccc(C(F)(F)F)nc2n1-c1cc(C)c2[nH]ncc2c1 [Example 251, 2-(1-Methoxy-1-methyl-ethyl)-3-(7-methyl-1H-indazol-5-yl)-5-(trifluoromethyl)imidazo[4,5-b]pyridine] | 2.51
Fc1ccc(-c2cc3ccc(F)nc3n2-c2ccc3[nH]ccc3c2)cc1 [Example 348, 6-Fluoro-2-(4-fluorophenyl)-1-(1H-indol-5-yl)pyrrolo[2,3-b]pyridine] | 100
O=C1Cc2cc(-n3c(CCCO)nc4ccc(C(F)(F)F)nc43)ccc2N1 [Example 73, 5-(2-(3-Hydroxypropyl)-5-(trifluoromethyl)-3H-imidazo[4,5-b]pyridin-3-yl)indolin-2-one] | 1260

Stronger by IC50, values ahead:

IC50 [nM] | Compound
1.58 | O=C1Cc2cc(-n3c(C(F)(F)F)nc4ccc(C(F)(F)F)nc43)ccc2N1 [Example 88, 5-[2,5-Bis(trifluoromethyl)imidazo[4,5-b]pyridin-3-yl]indolin-2-one]
1.26 | Cc1ccc2cc(-c3ccccc3)n(-c3cnc4[nH]ccc4c3)c2n1 [Example 390, 6-Methyl-2-phenyl-1-(1H-pyrrolo[2,3-b]pyridin-5-yl)pyrrolo[2,3-b]pyridine]
0.501 | Cc1cc2ccc(C(F)(F)F)nc2n1-c1ccc2c(c1)CC(=O)N2 [Example 352, 5-[2-Methyl-6-(trifluoromethyl)pyrrolo[2,3-b]pyridin-1-yl]indolin-2-one]
0.158 | FC(F)(F)c1nc2ccc(C3CCC3)nc2n1-c1ccc2[nH]ncc2c1 [Example 208, 5-Cyclobutyl-3-(1H-indazol-5-yl)-2-(trifluoromethyl)imidazo[4,5-b]pyridine]
0.158 | CCCc1ccc2nc(C(F)(F)F)n(-c3cc(C)c4[nH]ncc4c3)c2n1 [Example 224, 3-(7-Methyl-1H-indazol-5-yl)-5-propyl-2-(trifluoromethyl)-3H-imidazo[4,5-b]pyridine]
0.158 | Cc1cc(-n2c(-c3ccnc(F)c3)nc3ccc(C(F)F)nc32)cc2cn[nH]c12 [Example 263, 5-(Difluoromethyl)-2-(2-fluoro-4-pyridyl)-3-(7-methyl-1H-indazol-5-yl)imidazo[4,5-b]pyridine]
0.1 | CC[C@@H](C)c1nc2ccc(C(F)(F)F)nc2n1-c1cc(Cl)c2[nH]ncc2c1 (single isomer, unassigned) [Example 404, (*R)-2-(sec-Butyl)-3-(7-chloro-1H-indazol-5-yl)-5-(trifluoromethyl)-3H-imidazo[4,5-b]pyridine]
0.0398 | Cc1ccc2cc(C(C)C)n(-c3cc(F)c4c(c3)CC(=O)N4)c2n1 [Example 362, 7-Fluoro-5-(2-isopropyl-6-methyl-pyrrolo[2,3-b]pyridin-1-yl)indolin-2-one]
0.02 | CC(C)c1cc2cccnc2n1-c1cc(Cl)c2[nH]ncc2c1 [Example 356, 1-(7-Chloro-1H-indazol-5-yl)-2-isopropyl-pyrrolo[2,3-b]pyridine]

Reference: patent publication US11312712B2, “Azabenzimidazoles and their use as AMPA receptor modulators” (Janssen Pharmaceutica NV, priority 2015, dated 2022)
